Source: patent US20230330112A1, “COMPOSITION AND TREATMENT FOR CANCER WITH MUTATIONS” (BRIDGE BIOTHERAPEUTICS, INC., priority 2022, published 2023)

How the values were obtained:
[1] = test system: Ba/F3 EGFR 19Del/C797S xenograft; assay: Ba/F3 EGFR 19Del/C797S xenograft study; type: in vivo, mouse; conditions: even at 25 mg/kg
Experimental: (§1) For Ba/F3 EGFR 19Del/C797S and EGFR 19Del/T790M/C797S xenografts models, each mouse was inoculated subcutaneously at the right flank with cells (0.5×10^6) in 0.1 mL of PBS supplemented with BD Matrigel (1:1) for tumor development. The animals were randomized, and treatment was started when the average tumor volume reached 150-180 mm^3 for the efficacy study.
(§2) Tumor volumes were measured twice weekly in two dimensions using a caliper, and the volume was expressed in mm^3 using the formula: volume=0.5 a×b^2 where a and b are the long and short diameters of the tumor, respectively. The tumor sizes were then used for the calculations of T/C (treatment/control) values. The tumor volume was used for calculation of tumor growth index (TGI) of each group according to the following formula: TGI (%)=[1-(Tti-Tt0)/(Vci-Vc0)]×100. The bodyweight of mice was measured daily for the dosing phase, and the relative change of bodyweight (RCBW) of each mouse according to the following formula: […]

[2] = test system: Ba/F3 EGFR 19Del/T790M/C797S xenografts; assay: Ba/F3 EGFR 19Del/T790M/C797S xenograft study; type: in vivo, mouse; conditions: even at 25 mg/kg
Experimental: as §1, §2

**Q.** With `C=CC(=O)Nc1cc(Nc2nccc(-c3cn(C)c4ccccc34)n2)c(OC)cc1N(C)CCN(C)C` [osimertinib, reference compound] as the molecule, how does the tumor growth [1] read?
**A.** The tumor growth was “did not block the tumor growth”.

**Q.** What about the tumor growth [2] of the same molecule?
**A.** Its tumor growth is “did not block the tumor growth”.
